According to ChEMBL document CHEMBL1153760, “Identification and structure-activity relationships of chromene-derived selective estrogen receptor modulators for treatment of postmenopausal symptoms” (J Med Chem, 2009):

Key:
[1] = molecular target: Estrogen receptor beta (Homo sapiens, UniProt Q92731); assay: Inhibition of fluormone ES2 binding to estrogen receptor beta after 1 hr by fluorescence polarization assay
[2] = molecular target: T1, Estrogen receptor (Homo sapiens, UniProt P03372); assay: Displacement of radiolabeled estrogen from estrogen receptor alpha by scintillation counting
T1 sequence (P03372 whole entry): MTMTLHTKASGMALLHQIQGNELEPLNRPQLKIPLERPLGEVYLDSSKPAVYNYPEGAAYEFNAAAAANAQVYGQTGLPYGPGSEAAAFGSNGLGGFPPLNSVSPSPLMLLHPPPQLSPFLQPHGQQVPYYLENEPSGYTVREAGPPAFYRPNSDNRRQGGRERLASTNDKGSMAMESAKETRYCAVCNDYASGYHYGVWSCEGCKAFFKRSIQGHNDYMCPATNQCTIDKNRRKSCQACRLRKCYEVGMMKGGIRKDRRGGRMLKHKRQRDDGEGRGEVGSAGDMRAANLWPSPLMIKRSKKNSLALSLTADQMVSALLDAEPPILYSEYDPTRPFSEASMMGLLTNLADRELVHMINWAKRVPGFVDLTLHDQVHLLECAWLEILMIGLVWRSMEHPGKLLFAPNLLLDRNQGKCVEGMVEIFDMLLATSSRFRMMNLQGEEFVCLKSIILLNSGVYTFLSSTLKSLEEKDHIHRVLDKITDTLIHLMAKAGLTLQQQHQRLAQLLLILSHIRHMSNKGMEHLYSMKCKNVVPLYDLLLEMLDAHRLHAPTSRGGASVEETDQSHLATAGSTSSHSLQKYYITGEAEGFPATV

[3] = molecular target: T1, Estrogen receptor; assay: Antagonist activity at estrogen receptor in human Ishikawa cells assessed as 17-beta-estradiol-induced alkaline phosphatase activity after 3 days by chemiluminescence assay; format: functional, cell-based
[4] = organism: Rattus norvegicus; assay: animal or person; format: functional; conditions: Uterus, 72 h, route oral

Estrogen receptor beta, sequence (Q92731 whole entry): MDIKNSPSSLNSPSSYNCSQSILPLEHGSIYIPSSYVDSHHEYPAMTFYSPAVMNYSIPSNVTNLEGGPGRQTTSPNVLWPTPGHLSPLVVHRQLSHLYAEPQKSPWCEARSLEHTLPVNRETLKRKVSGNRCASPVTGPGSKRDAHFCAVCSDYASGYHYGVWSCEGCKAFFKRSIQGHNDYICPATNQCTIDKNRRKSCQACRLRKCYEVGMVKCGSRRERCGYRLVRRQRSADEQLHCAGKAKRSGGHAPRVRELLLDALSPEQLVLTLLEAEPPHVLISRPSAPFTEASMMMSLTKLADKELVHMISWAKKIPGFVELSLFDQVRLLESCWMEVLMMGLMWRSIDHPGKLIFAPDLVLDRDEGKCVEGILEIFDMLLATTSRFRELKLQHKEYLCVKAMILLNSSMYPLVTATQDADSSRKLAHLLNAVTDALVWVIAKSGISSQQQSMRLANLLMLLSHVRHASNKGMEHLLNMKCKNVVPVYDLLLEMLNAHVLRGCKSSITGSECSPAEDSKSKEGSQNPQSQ

Structure (SMILES)	IC50 [1]	IC50 [2]	IC50 [3]	inhibition in vivo at 1 mg/kg [4]
Oc1ccc2c(c1)OC(c1ccc(OCCN3CCCCC3)cc1)C1=C2CCCOc2cc(O)ccc21 (single isomer, unassigned; (+))	77 nM	23 nM	121 nM	33%
CN1CCN(CCOc2ccc([C@@H]3Oc4cc(O)ccc4C4=C3c3ccc(O)cc3OCC4)cc2)CC1	580 nM	312 nM	> 10000 nM	5%
Oc1ccc2c(c1)OCCC1=C2[C@H](c2ccc(OCCN3CCCCC3)cc2)Oc2ccccc21	24 nM	4.2 nM	150 nM	20%
OCCCOc1ccc(C2Oc3cc(O)ccc3C3=C2c2ccc(O)cc2OCC3)cc1 (configuration not stated)	44 nM	326 nM	> 10000 nM	0%
Oc1ccc2c(c1)O[C@H](c1ccc(OCCN3CCCC3)cc1)C1=C2CCOc2cc(O)ccc21	14 nM	1.2 nM	10 nM	10%
Oc1ccc2c(c1)OCCC1=C2[C@@H](c2ccc(OCCN3CCCCCC3)cc2)Oc2ccccc21	125 nM	11 nM	293 nM	110%
Oc1ccc2c(c1)O[C@@H](c1cccc(OCCN3CCSCC3)c1)C1=C2CCOc2cc(O)ccc21	> 1000 nM	> 1000 nM	> 10000 nM	–
CN1CCN(CCOc2cccc([C@H]3Oc4cc(O)ccc4C4=C3c3ccc(O)cc3OCC4)c2)CC1	> 1000 nM	> 1000 nM	> 10000 nM	–
O=C1CCC(=O)N1CCCOc1ccc([C@H]2Oc3cc(O)ccc3C3=C2c2ccc(O)cc2OCC3)cc1	12.7 nM	2.63 nM	> 10000 nM	0%
COc1ccc2c(c1)OCCC1=C2[C@H](c2ccc(OCCN3CCCCC3)cc2)Oc2cc(O)ccc21	24 nM	4.2 nM	150 nM	20%
Oc1ccc2c(c1)OCCC1=C2[C@@H](c2ccc(OCCN3CCCCCC3)cc2)Oc2cc(F)ccc21	66 nM	3.3 nM	81 nM	22%
O=C(O)CCOc1ccc([C@@H]2Oc3cc(O)ccc3C3=C2c2ccc(O)cc2OCC3)cc1	44 nM	580 nM	> 10000 nM	0%
CC(C)N(CCOc1ccc([C@H]2Oc3cc(O)ccc3C3=C2c2ccc(O)cc2OCC3)cc1)C(C)C	20 nM	5.4 nM	287 nM	30%
COc1ccc2c(c1)O[C@@H](c1ccc(OCCN3CCCCC3)cc1)C1=C2CCOc2cc(OC)ccc21	> 10000 nM	> 10000 nM	> 10000 nM	7%
CN(C)CCOc1ccc([C@H]2Oc3ccccc3C3=C2c2ccc(O)cc2OCC3)cc1	105 nM	–	–	55%
CN1CCN(CCOc2ccc([C@H]3Oc4cc(O)ccc4C4=C3c3ccc(O)cc3OCC4)cc2)CC1	86 nM	8.7 nM	90 nM	30%
Oc1ccc2c(c1)O[C@@H](c1ccc(OCCCN3CCCCC3)cc1)C1=C2CCOc2cc(O)ccc21	19 nM	55 nM	590 nM	15%
Oc1ccc2c(c1)OCCC1=C2[C@@H](c2ccc(OCCN3CCCCC3)cc2)Oc2ccccc21	99 nM	5.8 nM	76 nM	130%
Oc1ccc2c(c1)O[C@@H](c1ccc(OCCN3CCCCC3)cc1)C1=C2CCOc2cc(O)ccc21	16 nM	3.4 nM	32 nM	88%

Structure (SMILES)	IC50 [1]	IC50 [2]	IC50 [3]	inhibition in vivo at 1 mg/kg [4]
Oc1ccc2c(c1)O[C@@H](c1ccc(OCCN3CCCCCC3)cc1)C1=C2CCOc2cc(O)ccc21	13.4 nM	–	–	50%
O=C1CCC(=O)N1CCOc1ccc([C@@H]2Oc3cc(O)ccc3C3=C2c2ccc(O)cc2OCC3)cc1	18.6 nM	6.2 nM	> 10000 nM	0%
Oc1ccc2c(c1)O[C@@H](c1ccc(OCCN3CCCCC3)cc1)C1=C2CCOc2ccccc21	63 nM	6.3 nM	25.9 nM	12%
Oc1ccc2c(c1)O[C@@H](c1cccc(OCCN3CCCCC3)c1)C1=C2CCOc2cc(O)ccc21	200 nM	190 nM	> 10000 nM	0%
CN(C)CCOc1ccc([C@H]2Oc3cc(O)ccc3C3=C2c2ccc(O)cc2OCC3)cc1	23 nM	3.3 nM	61 nM	25%
COc1ccc2c(c1)O[C@@H](c1ccc(OCCN3CCCCC3)cc1)C1=C2CCOc2cc(O)ccc21	63 nM	6.3 nM	25.9 nM	12%
Oc1ccc2c(c1)O[C@H](c1ccc(OCCCN3CCCCC3)cc1)C1=C2CCOc2cc(O)ccc21	31 nM	22 nM	420 nM	23%
Oc1ccc2c(c1)O[C@H](c1ccc(OCCN3CCCCCC3)cc1)C1=C2CCOc2ccccc21	140 nM	85 nM	2670 nM	11%
Oc1ccc2c(c1)O[C@@H](c1ccc(OCCN3CCOCC3)cc1)C1=C2CCOc2cc(O)ccc21	11 nM	10 nM	> 10000 nM	0%
O=C1CCC(=O)N1CCCOc1ccc([C@@H]2Oc3cc(O)ccc3C3=C2c2ccc(O)cc2OCC3)cc1	5.68 nM	41 nM	> 10000 nM	0%
Oc1ccc2c(c1)O[C@H](c1ccc(OCCN3CCOCC3)cc1)C1=C2CCOc2cc(O)ccc21	35 nM	1.6 nM	43 nM	40%
CN(C)CCOc1ccc([C@@H]2Oc3cc(O)ccc3C3=C2c2ccccc2OCC3)cc1	30 nM	11.1 nM	158 nM	20%
CCN(CC)CCOc1ccc([C@H]2Oc3ccccc3C3=C2c2ccc(O)cc2OCC3)cc1	108 nM	5 nM	113 nM	80%
COC(=O)COc1ccc(C2Oc3cc(O)ccc3C3=C2c2ccc(O)cc2OCC3)cc1 (configuration not stated)	16 nM	4.8 nM	> 10000 nM	0%
Oc1ccc2c(c1)O[C@@H](c1ccc(OCCN3CCCC3)cc1)C1=C2CCOc2cc(O)ccc21	8.7 nM	2.5 nM	165 nM	20%
Oc1ccc2c(c1)O[C@H](c1cccc(OCCN3CCCCC3)c1)C1=C2CCOc2cc(O)ccc21	380 nM	150 nM	> 10000 nM	0%
Oc1ccc2c(c1)O[C@H](c1cccc(OCCN3CCSCC3)c1)C1=C2CCOc2cc(O)ccc21	> 1000 nM	> 1000 nM	> 10000 nM	–
CN1CCN(CCOc2cccc([C@@H]3Oc4cc(O)ccc4C4=C3c3ccc(O)cc3OCC4)c2)CC1	> 1000 nM	> 1000 nM	> 10000 nM	–
Oc1ccc2c(c1)O[C@H](c1ccc(OCCN3CCCCCC3)cc1)C1=C2CCOc2cc(O)ccc21	19 nM	–	–	60%
